Reference: ChEMBL document CHEMBL1201862, “PubChem BioAssay data set” (2004)
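Step 1: Grow cells in 96-well plates. Step 2: Expose to compound for 48 hours at 5 concentrations. Step 3: Interpolate endpoints linearly; if unreached, use highest concentration. GI50 is the concentration that inhibits growth by half.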 Activity calls are given as the source filed them. No stated cut-off is given here; in the data, active = GI50 up to about 1.1 µM and inactive = higher.

Experiments:
Assay in all cases: DTP human tumour cell line panel, 48 h
K562 = tested on: K562
SF-295 = tested on: SF-295
TK-10 = tested on: TK-10
U-251 = tested on: U-251
UACC-62 = tested on: UACC-62
Malme-3M = tested on: Malme-3M
OVCAR-5 = tested on: OVCAR-5
HCC 2998 = tested on: HCC 2998
HL-60 = tested on: HL-60
RXF 393 = tested on: RXF 393
HCT-15 = tested on: HCT-15
LOX IMVI = tested on: LOX IMVI
OVCAR-3 = tested on: OVCAR-3
BT-549 = tested on: BT-549
MOLT-4 = tested on: MOLT-4
SK-MEL-28 = tested on: SK-MEL-28
SK-MEL-2 = tested on: SK-MEL-2
SW-620 = tested on: SW-620
SK-MEL-5 = tested on: SK-MEL-5
HOP-62 = tested on: HOP-62
UACC-257 = tested on: UACC-257
CCRF-CEM = tested on: CCRF-CEM
RPMI-8226 = tested on: RPMI-8226
SF-268 = tested on: SF-268
SNB-19 = tested on: SNB-19
OVCAR-8 = tested on: OVCAR-8
Hs-578T = tested on: Hs-578T
HOP-92 = tested on: HOP-92
SK-OV-3 = tested on: SK-OV-3
A498 = tested on: A498
KM12 = tested on: KM12
UO-31 = tested on: UO-31
NCI-H460 = tested on: NCI-H460
A549 = tested on: A549
COLO 205 = tested on: COLO 205
786-0 = tested on: 786-0
MDA-MB-231 = tested on: MDA-MB-231
EKVX = tested on: EKVX
NCI-H23 = tested on: NCI-H23
ACHN = tested on: ACHN
DU-145 = tested on: DU-145
NCI-H522 = tested on: NCI-H522
NCI/ADR-RES = tested on: NCI/ADR-RES
M14 = tested on: M14
SNB-75 = tested on: SNB-75
IGROV-1 = tested on: IGROV-1
OVCAR-4 = tested on: OVCAR-4
PC-3 = tested on: PC-3
CAKI-1 = tested on: CAKI-1
HCT-116 = tested on: HCT-116
MDA-MB-435 = tested on: MDA-MB-435
NCI-H226 = tested on: NCI-H226
MDA-N = tested on: MDA-N
HT-29 = tested on: HT-29
T47D = tested on: T47D
SR = tested on: SR
SN12C = tested on: SN12C
SF-539 = tested on: SF-539
MCF7 = tested on: MCF7

CN1C(=O)C(C(=O)Nc2ccccn2)C2C[C@@]1(C)Oc1ccccc12 (stereo partly drawn)
GI50 (K562): > 100 µM (inactive) | GI50 (SF-295): > 100 µM (inactive) | GI50 (TK-10): > 100 µM (inactive) | GI50 (U-251): > 100 µM (inactive) | GI50 (UACC-62): 12 µM (inactive) | GI50 (Malme-3M): > 100 µM (inactive) | GI50 (OVCAR-5): > 100 µM (inactive) | GI50 (HCC 2998): > 100 µM (inactive) | GI50 (HL-60): > 100 µM (inactive) | GI50 (RXF 393): > 100 µM (inactive) | GI50 (HCT-15): > 100 µM | GI50 (LOX IMVI): > 100 µM (inactive) | GI50 (OVCAR-3): > 100 µM (inactive) | GI50 (BT-549): > 100 µM (inactive) | GI50 (MOLT-4): 62.7 µM (inactive) | GI50 (SK-MEL-28): > 100 µM (inactive) | GI50 (SK-MEL-2): > 100 µM (inactive) | GI50 (SW-620): > 100 µM (inactive) | GI50 (SK-MEL-5): > 100 µM (inactive) | GI50 (HOP-62): > 100 µM (inactive) | GI50 (UACC-257): > 100 µM (inactive) | GI50 (CCRF-CEM): > 100 µM (inactive) | GI50 (RPMI-8226): 56.1 µM (inactive) | GI50 (SF-268): > 100 µM (inactive) | GI50 (SNB-19): > 100 µM (inactive) | GI50 (OVCAR-8): > 100 µM (inactive) | GI50 (Hs-578T): > 100 µM (inactive) | GI50 (HOP-92): > 100 µM (inactive) | GI50 (SK-OV-3): > 100 µM (inactive) | GI50 (A498): 11.1 µM (inactive) | GI50 (KM12): > 100 µM (inactive) | GI50 (UO-31): > 100 µM (inactive) | GI50 (NCI-H460): > 100 µM (inactive) | GI50 (A549): > 100 µM (inactive) | GI50 (COLO 205): > 100 µM (inactive) | GI50 (786-0): > 100 µM (inactive) | GI50 (MDA-MB-231): > 100 µM (inactive) | GI50 (EKVX): 63.5 µM (inactive) | GI50 (NCI-H23): > 100 µM (inactive) | GI50 (ACHN): 0.861 µM (active) | GI50 (DU-145): > 100 µM (inactive) | GI50 (NCI-H522): > 100 µM (inactive) | GI50 (NCI/ADR-RES): > 100 µM (inactive) | GI50 (M14): > 100 µM (inactive) | GI50 (SNB-75): > 100 µM (inactive) | GI50 (IGROV-1): > 100 µM (inactive) | GI50 (OVCAR-4): > 100 µM (inactive) | GI50 (PC-3): > 100 µM (inactive) | GI50 (CAKI-1): > 100 µM (inactive) | GI50 (HCT-116): > 100 µM (inactive) | GI50 (MDA-MB-435): > 100 µM (inactive) | GI50 (NCI-H226): > 100 µM (inactive) | GI50 (MDA-N): > 100 µM (inactive) | GI50 (HT-29): > 100 µM (inactive)

O=C1Nc2ccc(Cl)cc2/C1=C\c1c(Cl)nc2sccn12
GI50 (K562): 0.156 µM (active) | GI50 (SF-295): 3.96 µM (inactive) | GI50 (TK-10): 8.47 µM (inactive) | GI50 (U-251): 2.93 µM (inactive) | GI50 (Malme-3M): > 100 µM (inactive) | GI50 (OVCAR-5): 14.7 µM (inactive) | GI50 (HCC 2998): 2.14 µM (inactive) | GI50 (HL-60): 4.07 µM (inactive) | GI50 (RXF 393): 18.6 µM (inactive) | GI50 (HCT-15): 2.67 µM | GI50 (LOX IMVI): 7.48 µM (inactive) | GI50 (OVCAR-3): 3.32 µM (inactive) | GI50 (BT-549): 7.57 µM (inactive) | GI50 (T47D): > 100 µM (inactive) | GI50 (MOLT-4): 2.59 µM (inactive) | GI50 (SK-MEL-28): > 100 µM (inactive) | GI50 (SK-MEL-2): 0.314 µM (active) | GI50 (SW-620): 14.8 µM (inactive) | GI50 (HOP-62): 13.9 µM (inactive) | GI50 (UACC-257): > 100 µM (inactive) | GI50 (CCRF-CEM): 10.6 µM (inactive) | GI50 (RPMI-8226): 0.0514 µM (active) | GI50 (SF-268): > 100 µM (inactive) | GI50 (SR): 0.338 µM (active) | GI50 (SNB-19): > 100 µM (inactive) | GI50 (OVCAR-8): 50.8 µM (inactive) | GI50 (HOP-92): > 100 µM (inactive) | GI50 (SN12C): > 100 µM (inactive) | GI50 (SK-OV-3): 36.8 µM (inactive) | GI50 (A498): 0.0632 µM (active) | GI50 (KM12): 2.25 µM (inactive) | GI50 (UO-31): > 100 µM (inactive) | GI50 (NCI-H460): 1.96 µM (inactive) | GI50 (MDA-MB-231): 2.56 µM (inactive) | GI50 (NCI-H23): 59 µM (inactive) | GI50 (ACHN): > 100 µM (inactive) | GI50 (DU-145): 73.5 µM (inactive) | GI50 (NCI-H522): 5.62 µM (inactive) | GI50 (NCI/ADR-RES): 3.1 µM (inactive) | GI50 (M14): 34.2 µM (inactive) | GI50 (SNB-75): > 100 µM (inactive) | GI50 (IGROV-1): 8.51 µM (inactive) | GI50 (OVCAR-4): > 100 µM (inactive) | GI50 (PC-3): 4.93 µM (inactive) | GI50 (CAKI-1): 18.7 µM (inactive) | GI50 (HCT-116): 4.23 µM (inactive) | GI50 (MDA-MB-435): 0.787 µM (active) | GI50 (MDA-N): 1.91 µM (inactive)

COc1c(-c2ccccc2)oc2c(CP(=O)(OC)OC)cccc2c1=O
GI50 (K562): > 100 µM (inactive) | GI50 (SF-295): > 100 µM (inactive) | GI50 (TK-10): > 100 µM (inactive) | GI50 (U-251): > 100 µM (inactive) | GI50 (UACC-62): > 100 µM (inactive) | GI50 (Malme-3M): > 100 µM (inactive) | GI50 (OVCAR-5): > 100 µM (inactive) | GI50 (HCC 2998): > 100 µM (inactive) | GI50 (SF-539): > 100 µM (inactive) | GI50 (RXF 393): > 100 µM (inactive) | GI50 (MCF7): > 100 µM (inactive) | GI50 (OVCAR-3): > 100 µM (inactive) | GI50 (BT-549): 41.1 µM (inactive) | GI50 (T47D): > 100 µM (inactive) | GI50 (MOLT-4): > 100 µM (inactive) | GI50 (SK-MEL-2): > 100 µM (inactive) | GI50 (SK-MEL-5): > 100 µM (inactive) | GI50 (HOP-62): > 100 µM (inactive) | GI50 (UACC-257): > 100 µM (inactive) | GI50 (CCRF-CEM): 94.4 µM (inactive) | GI50 (RPMI-8226): 14.6 µM (inactive) | GI50 (SR): > 100 µM (inactive) | GI50 (SN12C): > 100 µM (inactive) | GI50 (SK-OV-3): > 100 µM (inactive) | GI50 (A498): > 100 µM (inactive) | GI50 (UO-31): 11.7 µM (inactive) | GI50 (A549): > 100 µM (inactive) | GI50 (COLO 205): > 100 µM (inactive) | GI50 (786-0): > 100 µM (inactive) | GI50 (MDA-MB-231): > 100 µM (inactive) | GI50 (EKVX): > 100 µM (inactive) | GI50 (NCI-H23): 68.2 µM (inactive) | GI50 (DU-145): > 100 µM (inactive) | GI50 (NCI-H522): > 100 µM (inactive) | GI50 (M14): > 100 µM (inactive) | GI50 (IGROV-1): > 100 µM (inactive) | GI50 (PC-3): > 100 µM (inactive) | GI50 (CAKI-1): 2.12 µM (inactive) | GI50 (HCT-116): > 100 µM (inactive) | GI50 (MDA-MB-435): > 100 µM (inactive) | GI50 (MDA-N): > 100 µM (inactive)
